How the values were obtained:
[1] = paclitaxel prodrug loading and sizing of PEG-b-PCL micelles; type: physicochemical; details: for Solubilized / prodrug w/w % / prodrug:caprolactone: 20% w/w prodrug loading in 0.5-mM PEG-b-PCL micelles; for Diameter (intensity): DLS, PEG-PCL micelles prepared at 20% w/w drug; for Solubilized (in parentheses): after evaporation to 25% of original volume and refiltration (0.22-μm)
Procedure: The organic solvent was then removed by stirring under an air purge. Where stated, samples were further concentrated by prolonged evaporation under an air purge. After removing the organic solvent, PEG-b-PCL micelles were passed through a 0.22-μm polyestersulfone filter to remove insoluble material and unincorporated drug. In a typical experiment, […] of PEG-b-PCL was dissolved in 0.75 ml of dry acetone and added dropwise (50 μL/min) to 2 ml of ddH2O yielding 0.5-mM PEG-b-PCL micelles after removing the volatile organic solvent.
The incorporation of prodrugs into PEG-b-PCL micelles was verified by equivalent retention times in UV and RI chromatographs from gel permeation chromatography. PEG-b-PCL micelles were injected on an OHpak SB-806M GPC column (20-μL injections, 0.5-mM PEG-b-PCL, 0.75 ml/min of ddH2O, 10° C.) (Shodex, Kawasaki, Japan) and detected by refractive index (RI) and UV absorbance (232 nm). Prodrug loading into PEG-b-PCL micelles was quantitatively determined by reverse-phase HPLC (Alltech Econosphere 3-μm 4.6×50 mm) using a 0.01% (v/v) trifluoroacetic acid—ACN gradient (40-100% ACN, 50° C., 232-nm detection). Hydrodynamic diameters of PEG-b-PCL micelles were determined by dynamic light scattering (DLS) (NICOMP 380 ZLS, Particle Sizing Systems, Santa Barbara, Calif.). Data were analyzed by intensity-weighted Gaussian distribution fitting (NICOMP version 1.76). Measurements were made for a minimum of 10 min or at least 100×10^5 counts in channel 1.

[2] = octanol-water partition coefficient by microemulsion electrokinetic chromatography (MEEKC); details: pH 7.00 running buffer, ± standard deviation (n = 3)
Procedure: The octanol-water partition coefficient of geldanamycin was determined by microemulsion electrokinetic chromatography.
Running buffer was prepared by titration of 25-mM sodium phosphate monobasic with 50-mM sodium tetraborate to pH 7.00, and 1.44 g of sodium dodecyl sulfate, 6.49 g of 1-butanol, and 0.82 g of heptane were made up to 100 ml with phosphate-borate buffer. The running buffer was ultrasonicated for 30 min in a closed 250-ml flask in ice water (G112SP1 Special Ultrasonic Cleaner, Laboratory Supplies Company Inc., Hicksville, N.Y.). […] Compounds and standards (n=3) were dissolved in the running buffer (0.05 mg/ml) with 0.5 μL/ml of nitromethane and 0.5 μL/ml of 1-phenyldodecane by ultrasonication (10 min) in a closed tube and centrifuged (16000×g, 3 min) to degas. A BioFocus 3000 capillary electrophoresis system (Bio-Rad, Hercules, Calif.) equipped with a 50-μm ID×37-cm uncoated fused-silica column (Polymicron Technologies LLC, Phoenix, Ariz.) was used for MEEKC experiments. The column was prewashed with 1-M NaOH for 5 min and before runs with 0.1-M NaOH for 1 min, ddH2O for 1 min, and running buffer for 1 min at 100 psi (690 kPa). Running conditions were 10 kV (ca. 30-35 μA, 30 min/run) at 20° C. with 1-psi·s injections (6.9 kPa·s) and detection at 210 and 232 nm. Log Po/w and retention factors, k′, were calculated using the equations:
[formula] [formula] where tr, t0, and tme are retention times of the prodrug, nitromethane, and 1-phenyldodecane, respectively. Fitting parameters a and b were determined by linear regression of known standards: pyridine, phenol, benzoic acid, anisole, benzene, toluene, dodecanoic acid, benzopyrene, and pyrene (R^2=0.996, Excel® 2003, Microsoft Corp.).

## CCCCCCCCCCCC(=O)O[C@H]1C[C@H]2OC[C@@]2(OC(C)=O)[C@H]2[C@H](OC(=O)c3ccccc3)[C@]3(O)C[C@H](OC(=O)[C@H](O)[C@@H](NC(=O)c4ccccc4)c4ccccc4)C(C)=C([C@@H](OC(C)=O)C(=O)[C@]12C)C3(C)C [Prodrug 4b]
[1]
  Solubilized: 1.47 ± 0.03 mg/mL
  prodrug w/w %: 16.4%
  prodrug:caprolactone: 31.8 mmol:mol
  Diameter (intensity): 27 ± 5 nm
  Solubilized (in parentheses): 2.2 ± 0.5 mg/mL
[2]
  log Po/w: 4.59 ± 0.18

## CCCCCCCCCCCCCCCC(=O)O[C@H]1C[C@H]2OC[C@@]2(OC(C)=O)[C@H]2[C@H](OC(=O)c3ccccc3)[C@]3(O)C[C@H](OC(=O)[C@H](O)[C@@H](NC(=O)c4ccccc4)c4ccccc4)C(C)=C([C@@H](OC(C)=O)C(=O)[C@]12C)C3(C)C [Prodrug 4c, 7-palmitate-paclitaxel]
[1]
  Solubilized: 1.62 ± 0.03 mg/mL
  prodrug w/w %: 21.6%
  prodrug:caprolactone: 33.3 mmol:mol
  Diameter (intensity): 44 ± 2 nm
  Solubilized (in parentheses): 3.0 ± 0.9 mg/mL
[2]
  log Po/w: 4.48 ± 0.06

## CCCCCCCCCCCC(=O)OC(C(=O)OC1CC2(O)C(OC(=O)c3ccccc3)C3C4(OC(C)=O)COC4CC(O)C3(C)C(=O)C(OC(C)=O)C(=C1C)C2(C)C)C(NC(=O)c1ccccc1)c1ccccc1 (stereo not drawn) [Prodrug 5b]
[1]
  Solubilized: 1.57 ± 0.02 mg/mL
  prodrug w/w %: 17.3%
  prodrug:caprolactone: 34.0 mmol:mol
  Diameter (intensity): 28 ± 0 nm
  Solubilized (in parentheses): > 3 mg/mL
[2]
  log Po/w: 4.49 ± 0.03

## CCCCCCCCCCCCCCCC(=O)O[C@@H](C(=O)O[C@H]1C[C@@]2(O)[C@@H](OC(=O)c3ccccc3)[C@@H]3[C@]4(OC(C)=O)CO[C@@H]4C[C@H](O)[C@@]3(C)C(=O)[C@H](OC(C)=O)C(=C1C)C2(C)C)[C@@H](NC(=O)c1ccccc1)c1ccccc1 [Prodrug 5c, 2-palmitate-paclitaxel]
[1]
  Solubilized: 1.85 ± 0.05 mg/mL
  prodrug w/w %: 19.8%
  prodrug:caprolactone: 40.0 mmol:mol
  Diameter (intensity): 37 ± 6 nm
  Solubilized (in parentheses): > 3 mg/mL
[2]
  log Po/w: 4.51 ± 0.04

## CCCCCC(=O)O[C@@H](C(=O)O[C@H]1C[C@@]2(O)[C@@H](OC(=O)c3ccccc3)[C@@H]3[C@]4(OC(C)=O)CO[C@@H]4C[C@H](O)[C@@]3(C)C(=O)[C@H](OC(C)=O)C(=C1C)C2(C)C)[C@@H](NC(=O)c1ccccc1)c1ccccc1 [Prodrug 5a]
[1]
  Solubilized: 1.42 ± 0.11 mg/mL
  prodrug w/w %: 17.8%
  prodrug:caprolactone: 33.4 mmol:mol
  Diameter (intensity): 32 ± 0 nm
  Solubilized (in parentheses): > 3 mg/mL
[2]
  log Po/w: 4.45 ± 0.03

## CCCCCC(=O)O[C@H]1C[C@H]2OC[C@@]2(OC(C)=O)[C@H]2[C@H](OC(=O)c3ccccc3)[C@]3(O)C[C@H](OC(=O)[C@H](O)[C@@H](NC(=O)c4ccccc4)c4ccccc4)C(C)=C([C@@H](OC(C)=O)C(=O)[C@]12C)C3(C)C [Prodrug 4a]
[1]
  Solubilized: 1.55 ± 0.04 mg/mL
  prodrug w/w %: 17.1%
  prodrug:caprolactone: 36.5 mmol:mol
  Diameter (intensity): 34 ± 4 nm
  Solubilized (in parentheses): 5.1 ± 0.5 mg/mL
[2]
  log Po/w: 4.43 ± 0.06
